Results as given in patent publication US20150010502A1, “Compositions and Methods for Suppressing Gene Expression of p53 and Clusterin” (priority 2011, published 2015).
e = 2'-O-(2-methoxyethyl) (MOE); d = 2'-deoxy (DNA)

What was measured:
[1] = system: U2OS cells (osteosarcoma); experiment: U2OS cells treated with PMO, cisplatin followed by Go6976 (FIG. 5); format: cell-based; settings: PMO 3 uM 2 h; for enhancement of sensitivity to cisplatin: Cis 5 uM 24 h
Experimental: FIG. 5 is a graph showing the results obtained with U2OS cells treated with PMO (3 uM, 2 h), Cis (5 uM, 24 h) followed by Go6976 (100 nM, 24 h).
(§1) In further studies, additional agents were tested in conjunction with p53 morpholinos. […] We also tested these agents on U2OS cells (osteosarcoma). Again a dramatic effect on cell cycle that is dependent on PMOs and Go is observed. PMOs give a 3-fold enhancement of drug sensitivity in the caspase 3 assay. We also assessed U2OS cells treated with PMOs (p53-A and p53-B) +/−cisplatin+/−Go6976.

[2] = system: U2OS cells (osteosarcoma); experiment: U2OS cells treated with PMO, Dox followed by Go6976: cell cycle and caspase 3 assay (FIG. 4); format: cell-based; settings: PMO 3 uM 2 h, Dox 200 ng/ml 24 h, +/- Go6976 100 nM 24 h
Experimental: FIG. 4 is a graph showing the results obtained with U2OS cells treated with PMO (3 uM, 2 h), Dox (200 ng/ml, 24 h) followed by Go6976 (100 nM, 24 h).
as §1

clusterin = settings: cited from earlier work

| Molecule | enhancement of drug sensitivity in the caspase 3 assay [2] [fold] | enhancement of sensitivity to cisplatin [1] | further results |
| --- | --- | --- | --- |
| Cn1c2ccccc2c2c3c(c4c5ccccc5n(CCC#N)c4c21)CNC3=O [Go6976] | – | – | effect of Go6976 on the PMO enhancement of cisplatin sensitivity ([1]; Cis 5 uM 24 h followed by Go6976 100 nM 24 h): potentiates this enhancement |
| PMO A: p53 morpholino (PMO) with sequence corresponding to Seq Id 136 (NU(4)p53); (RX)8B CPP used in in vitro testing (CCATGGCAGTGACCCGGAAGGC; all phosphorodiamidate morpholino (PMO); (RX)8B cell-penetrating peptide conjugated, position not given here) | 3 | about 3 fold | – |
| PMO B: p53 morpholino (PMO) with sequence corresponding to Seq Id 140 (NU(7)p53); (RX)8B CPP used in in vitro testing (GCATCAAATCATCCATTGCTTG; all phosphorodiamidate morpholino (PMO); (RX)8B cell-penetrating peptide conjugated, position not given here) | 3 | about 3 fold | – |
| SEQ ID NO: 3: clusterin antisense oligo 5′-CAGCAGCAGAGTC TTCATCAT-3′, all phosphorothioate, terminal four nucleosides each end 2′-O-methyoxyethyl (CAGCAGCAGAGTCTTCATCAT; sugars from the 5' end e4 d13 e4, all phosphorothioate, methylation of C not given here) | – | – | sensitization of cancer cells to radiation and chemotherapeutic agents (clusterin; cancer cells including prostate cancer cells): modestly sensitize some cancer cells; suppressive activity on clusterin expression (clusterin): relatively poor suppressive activity; effect on induction of apoptosis (clusterin; some cancer cells, including those deficient in p21 (WAF-1) expression): can inhibit the induction of apoptosis in some cancer cells |
